Results taken from patent US8541588B2, “Sulfonamide derivatives” (Pfizer Limited, priority 2009, dated 2013).

target: T1, Nav1.7 (or SCN9A) channel; HEK cells stably transfected with hSCN9A (Homo sapiens, UniProt Q15858); assay: Nav1.7 block, PatchXpress 7000 automated whole-cell voltage clamp, estimated IC50 (EIC50); assay type: cell-based; conditions: PatchXpress platform; hSCN9A HEK cells held at V1/2 of inactivation; estimated IC50
T1 construct: expressed in transfected cells
T1 sequence (Q15858 whole entry): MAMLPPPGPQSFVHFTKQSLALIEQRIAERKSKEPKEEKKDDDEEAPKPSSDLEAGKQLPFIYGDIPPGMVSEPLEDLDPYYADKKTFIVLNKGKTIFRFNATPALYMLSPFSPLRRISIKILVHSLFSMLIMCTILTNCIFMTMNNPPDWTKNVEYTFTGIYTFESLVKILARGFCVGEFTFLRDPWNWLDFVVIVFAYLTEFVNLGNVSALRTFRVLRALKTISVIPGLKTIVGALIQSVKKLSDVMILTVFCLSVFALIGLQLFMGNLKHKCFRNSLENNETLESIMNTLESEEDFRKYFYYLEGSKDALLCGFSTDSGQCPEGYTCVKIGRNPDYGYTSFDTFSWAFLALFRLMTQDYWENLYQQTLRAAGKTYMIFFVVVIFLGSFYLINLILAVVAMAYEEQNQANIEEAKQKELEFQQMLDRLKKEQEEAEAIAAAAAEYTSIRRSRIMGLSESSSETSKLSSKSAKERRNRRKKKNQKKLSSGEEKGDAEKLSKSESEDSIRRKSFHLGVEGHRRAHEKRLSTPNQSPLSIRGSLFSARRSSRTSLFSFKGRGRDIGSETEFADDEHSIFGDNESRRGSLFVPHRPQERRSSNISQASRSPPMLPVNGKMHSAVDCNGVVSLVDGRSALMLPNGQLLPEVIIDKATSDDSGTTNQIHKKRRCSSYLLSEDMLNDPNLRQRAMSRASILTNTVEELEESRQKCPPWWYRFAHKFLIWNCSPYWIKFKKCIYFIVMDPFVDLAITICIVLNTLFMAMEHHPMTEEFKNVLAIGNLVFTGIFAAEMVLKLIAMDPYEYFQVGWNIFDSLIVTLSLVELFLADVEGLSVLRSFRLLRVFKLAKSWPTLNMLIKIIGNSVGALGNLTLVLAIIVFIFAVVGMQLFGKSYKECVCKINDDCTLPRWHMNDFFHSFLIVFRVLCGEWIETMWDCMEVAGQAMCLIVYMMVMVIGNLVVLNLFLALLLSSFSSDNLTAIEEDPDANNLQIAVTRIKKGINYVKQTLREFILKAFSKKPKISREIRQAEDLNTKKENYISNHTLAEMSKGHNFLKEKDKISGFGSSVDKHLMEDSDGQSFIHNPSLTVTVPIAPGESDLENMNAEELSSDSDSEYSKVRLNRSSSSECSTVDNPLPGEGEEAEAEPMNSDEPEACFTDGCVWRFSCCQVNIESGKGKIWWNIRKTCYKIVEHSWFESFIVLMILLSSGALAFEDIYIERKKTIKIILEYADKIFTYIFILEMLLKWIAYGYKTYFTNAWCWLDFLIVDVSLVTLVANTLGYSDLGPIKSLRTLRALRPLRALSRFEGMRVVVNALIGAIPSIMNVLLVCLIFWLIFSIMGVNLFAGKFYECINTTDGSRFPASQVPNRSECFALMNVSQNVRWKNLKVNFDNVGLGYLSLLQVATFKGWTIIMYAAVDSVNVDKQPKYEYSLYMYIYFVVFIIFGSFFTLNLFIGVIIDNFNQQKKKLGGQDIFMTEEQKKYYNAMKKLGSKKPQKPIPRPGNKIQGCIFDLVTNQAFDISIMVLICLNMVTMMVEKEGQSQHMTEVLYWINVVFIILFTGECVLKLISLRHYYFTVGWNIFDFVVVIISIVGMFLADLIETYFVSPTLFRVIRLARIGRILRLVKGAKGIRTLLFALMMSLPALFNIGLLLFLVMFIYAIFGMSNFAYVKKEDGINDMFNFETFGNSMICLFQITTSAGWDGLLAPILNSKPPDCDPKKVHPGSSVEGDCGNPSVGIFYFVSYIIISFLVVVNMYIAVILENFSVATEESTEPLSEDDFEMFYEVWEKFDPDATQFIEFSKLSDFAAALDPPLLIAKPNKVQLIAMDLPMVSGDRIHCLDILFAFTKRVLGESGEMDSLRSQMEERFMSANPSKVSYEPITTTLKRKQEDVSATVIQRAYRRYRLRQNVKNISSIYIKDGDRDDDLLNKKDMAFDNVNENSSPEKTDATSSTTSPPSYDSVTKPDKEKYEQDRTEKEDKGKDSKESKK

Work on N#Cc1cc(S(=O)(=O)Nc2nccs2)ccc1Oc1ccccc1-c1nncn1-c1ccccc1 [Example 181, 3-cyano-4-(2-(4-phenyl-4H-1,2,4-triazol-3-yl)phenoxy)-N-(thiazol-2-yl)benzenesulfonamide] yielded an IC50 greater than 10000 nM.
With N#Cc1cc(S(=O)(=O)Nc2cc(C(F)(F)F)ncn2)ccc1Oc1ccccc1-c1ccccc1 [Example 115, 4-(biphenyl-2-yloxy)-3-cyano-N-[6-(trifluoromethyl)pyrimidin-4-yl]benzenesulfonamide] the IC50 was greater than 10000 nM.

In order of rising IC50:
1. COCc1ccc(Oc2ccc(S(=O)(=O)Nc3nccs3)cc2F)c(-c2ccnn2C)c1 [Example 234, 3-fluoro-4-(4-(methoxymethyl)-2-(1-methyl-1H-pyrazol-5-yl)phenoxy)-N-(thiazol-2-yl)benzenesulfonamide]  90 nM
2. O=S(=O)(Nc1nccs1)c1ccc(Oc2ccc(F)cc2-c2ccnn2CCO)c(F)c1 [Example 237, 3-fluoro-4-{4-fluoro-2-[1-(2-hydroxyethyl)-1H-pyrazol-5-yl]phenoxy}-N-1,3-thiazol-2-ylbenzenesulfonamide]  210 nM
3. N#Cc1cc(S(=O)(=O)Nc2ncns2)ccc1Oc1ccccc1-c1ccc(F)c(F)c1 [Example 52, 3-cyano-4-[(3′,4′-difluorobiphenyl-2-yl)oxy]-N-1,2,4-thiadiazol-5-ylbenzenesulfonamide]  360 nM
4. O=S(=O)(Nc1ncns1)c1ccc(Oc2cc(C(F)(F)F)nn2-c2ccccc2F)c(F)c1 [Example 255, 3-fluoro-4-[2-(2-fluoro-phenyl)-5-trifluoromethyl-2H-pyrazol-3-yloxy]-N-1,2,4-thiadiazol-5-yl-benzenesulfonamide]  490 nM
5. N#Cc1cc(S(=O)(=O)Nc2ncns2)ccc1Oc1cccc(F)c1-c1ccn[nH]1 [Example 89, 3-cyano-4-[3-fluoro-2-(2H-pyrazol-3-yl)-phenoxy]-N-[1,2,4]thiadiazol-5-yl-benzenesulfonamide]  680 nM
6. Cc1cccc(-c2ccc(F)c(F)c2)c1Oc1ccc(S(=O)(=O)Nc2ncns2)cc1C#N [Example 44, 3-cyano-4-[(3′,4′-difluoro-3-methylbiphenyl-2-yl)oxy]-N-1,2,4-thiadiazol-5-ylbenzenesulfonamide]  5930 nM
7. Cn1ccnc1NS(=O)(=O)c1ccc(Oc2ccccc2-c2ccccc2)c(C#N)c1 [Example 113, 4-(biphenyl-2-yloxy)-3-cyano-N-(1-methyl-1H-imidazol-2-yl)benzenesulfonamide]  12900 nM

same assay, conditions: estimated IC50; hSCN9A HEK cells, PatchXpress platform; Examples 283-814

In order of rising IC50:
1. O=S(=O)(Nc1ncns1)c1cc(F)c(Oc2ccc(Cl)cc2-c2cn[nH]c2)cc1F [Example 738, 4-[4-chloro-2-(1H-pyrazol-4-yl)phenoxy]-2,5-difluoro-N-1,2,4-thiadiazol-5-ylbenzenesulfonamide]  1.4 nM
2. 4-[2-(2-aminopyridin-4-yl)-4-(trifluoromethoxy)phenoxy]-2,5-difluoro-N-1,2,4-thiadiazol-5-ylbenzenesulfonamide [Example 552]  2.4 nM
3. N#Cc1cc(S(=O)(=O)Nc2ncns2)ccc1Oc1ccc(Cl)cc1-c1ccnc(N2CCNCC2)c1 [Example 736, 4-[4-chloro-2-(2-piperazin-1-ylpyridin-4-yl)phenoxy]-3-cyano-N-1,2,4-thiadiazol-5-ylbenzenesulfonamide]  2.7 nM
4. Nc1[nH]ncc1-c1cc(Cl)ccc1Oc1cc(F)c(S(=O)(=O)Nc2ncns2)cc1Cl [Example 794, 4-[2-(5-amino-1H-pyrazol-4-yl)-4-chlorophenoxy]-5-chloro-2-fluoro-N-1,2,4-thiadiazol-5-ylbenzenesulfonamide]  4.8 nM
5. O=S(=O)(Nc1ncns1)c1cc(F)c(Oc2cc(Cl)c(F)cc2-c2ccn[nH]2)cc1F [Example 753, 4-[5-chloro-4-fluoro-2-(1H-pyrazol-5-yl)phenoxy]-2,5-difluoro-N-1,2,4-thiadiazol-5-ylbenzenesulfonamide]  5.2 nM
6. O=S(=O)(Nc1cscn1)c1cc(Cl)c(Oc2ccc(Cl)cc2-c2ccnn2C2CNC2)cc1F [Example 726, 4-[2-(1-azetidin-3-yl-1H-pyrazol-5-yl)-4-chlorophenoxy]-5-chloro-2-fluoro-N-1,3-thiazol-4-ylbenzenesulfonamide]  5.8 nM
7. Cc1cc(-c2cc(C(F)(F)F)ccc2Oc2ccc(S(=O)(=O)Nc3ncns3)cc2C#N)ccn1 [Example 508, 3-cyano-4-[2-(2-methylpyridin-4-yl)-4-(trifluoromethyl)phenoxy]-N-1,2,4-thiadiazol-5-ylbenzenesulfonamide]  20 nM
8. N#Cc1cc(S(=O)(=O)Nc2nccs2)ccc1Oc1ccc(Cl)cc1-c1cccnc1 [Example 700, 4-(4-chloro-2-pyridin-3-ylphenoxy)-3-cyano-N-1,3-thiazol-2-ylbenzenesulfonamide]  57 nM
9. N#Cc1cc(S(=O)(=O)Nc2cscn2)ccc1Oc1ccc(Cl)cc1-c1ccnn1C1CCNCC1 [Example 760, 4-[4-chloro-2-(1-piperidin-4-yl-1H-pyrazol-5-yl)phenoxy]-3-cyano-N-1,3-thiazol-4-ylbenzenesulfonamide]  88 nM
10. O=S(=O)(Nc1cscn1)c1cc(F)c(Oc2ccc(OC(F)(F)F)cc2-c2cn[nH]c2)cc1F [Example 750, 2,5-difluoro-4-[2-(1H-pyrazol-4-yl)-4-(trifluoromethoxy)phenoxy]-N-1,3-thiazol-4-ylbenzenesulfonamide]  210 nM
11. Cn1nc(C(F)(F)F)cc1-c1ccc(Oc2ccc(S(=O)(=O)Nc3nccs3)cc2C#N)c(F)c1 [Example 330, 3-cyano-4-{2-fluoro-4-[1-methyl-3-(trifluoromethyl)-1H-pyrazol-5-yl]phenoxy}-N-1,3-thiazol-2-ylbenzenesulfonamide]  250 nM
12. N#Cc1cc(S(=O)(=O)Nc2nccs2)ccc1Oc1ccc(-n2nc(C(F)F)cc2CO)cc1 [Example 708, 3-cyano-4-{4-[3-(difluoromethyl)-5-(hydroxymethyl)-1H-pyrazol-1-yl]phenoxy}-N-1,3-thiazol-2-ylbenzenesulfonamide]  400 nM
13. Cn1nccc1-c1cc(CCO)ccc1Oc1ccc(S(=O)(=O)Nc2ncc(F)s2)cc1C#N [Example 716, 3-cyano-N-(5-fluoro-1,3-thiazol-2-yl)-4-[4-(2-hydroxyethyl)-2-(1-methyl-1H-pyrazol-5-yl)phenoxy]benzenesulfonamide]  430 nM
14. Cn1nccc1-c1cc(C#N)ccc1Oc1cc(F)c(S(=O)(=O)Nc2ncc(Cl)s2)cc1F [Example 441, N-(5-chloro-1,3-thiazol-2-yl)-4-[4-cyano-2-(1-methyl-1H-pyrazol-5-yl)phenoxy]-2,5-difluorobenzenesulfonamide]  960 nM
15. Cc1nn(C)cc1-c1ccc(Oc2ccc(S(=O)(=O)Nc3nccs3)cc2C#N)cc1 [Example 389, 3-cyano-4-[4-(1,3-dimethyl-1H-pyrazol-4-yl)phenoxy]-N-1,3-thiazol-2-ylbenzenesulfonamide]  1100 nM
16. Cn1nccc1-c1cc(Cl)ccc1Oc1ccc(S(=O)(=O)Nc2ccc(F)cn2)cc1F [Example 514, 4-[4-chloro-2-(1-methyl-1H-pyrazol-5-yl)phenoxy]-3-fluoro-N-(5-fluoropyridin-2-yl)benzenesulfonamide]  1100 nM
17. N#Cc1cc(S(=O)(=O)Nc2nccs2)ccc1Oc1ccc(Cl)c(Cn2cncn2)c1 [Example 336, 4-[4-chloro-3-(1H-1,2,4-triazol-1-ylmethyl)phenoxy]-3-cyano-N-1,3-thiazol-2-ylbenzenesulfonamide]  2200 nM

N#Cc1cc(S(=O)(=O)Nc2ncns2)ccc1Oc1ccc(-c2nc(CO)co2)cc1 [Example 665, 3-Cyano-4-{4-[4-(hydroxymethyl)-1,3-oxazol-2-yl]phenoxy}-N-1,2,4-thiadiazol-5-ylbenzenesulfonamide] gave an IC50 greater than 1000 nM.

same assay, conditions: estimated IC50; hSCN9A HEK cells, PatchXpress platform; Examples 815-1040

In order of rising IC50:
1. N#Cc1cc(S(=O)(=O)Nc2ncns2)ccc1Oc1ccc(I)cc1-c1cccc(CN2CCC2)c1 [Example 815, 4-{[3′-(azetidin-1-ylmethyl)-5-iodobiphenyl-2-yl]oxy}-3-cyano-N-1,2,4-thiadiazol-5-ylbenzenesulfonamide]  0.6 nM
2. Nc1[nH]ncc1-c1cc(Cl)ccc1Oc1ccc(S(=O)(=O)Nc2ncns2)cc1Cl [Example 913, 4-[2-(5-amino-1H-pyrazol-4-yl)-4-chlorophenoxy]-3-chloro-N-1,2,4-thiadiazol-5-ylbenzenesulfonamide]  0.9 nM
3. N#Cc1cc(S(=O)(=O)Nc2ncns2)ccc1Oc1ccc(Cl)cc1-c1cccc(CN2CC(CO)(CO)C2)c1 [Example 867, 4-[(3′-{[3,3-bis(hydroxymethyl)azetidin-1-yl]methyl}-5-chlorobiphenyl-2-yl)oxy]-3-cyano-N-1,2,4-thiadiazol-5-ylbenzenesulfonamide]  1.4 nM
4. CCN1CC(n2nccc2-c2cc(C(F)(F)F)ccc2Oc2ccc(S(=O)(=O)Nc3ncns3)cc2C#N)C1 [Example 1033, 3-Cyano-4-{2-[1-(1-ethylazetidin-3-yl)-1H-pyrazol-5-yl]-4-(trifluoromethyl)phenoxy}-N-1,2,4-thiadiazol-5-ylbenzenesulfonamide]  3.5 nM
5. O=S(=O)(Nc1cscn1)c1cc(F)c(Oc2ccc(C(F)(F)F)cc2-c2ccnn2C2CNC2)cc1F [Example 841, 4-[2-(1-azetidin-3-yl-1H-pyrazol-5-yl)-4-(trifluoromethyl)phenoxy]-2,5-difluoro-N-1,3-thiazol-4-ylbenzenesulfonamide]  11 nM
6. N#Cc1cc(S(=O)(=O)Nc2nncs2)ccc1Oc1ccc(Cl)cc1-c1cn[nH]c1 [Example 839, 4-[4-chloro-2-(1H-pyrazol-4-yl)phenoxy]-3-cyano-N-1,3,4-thiadiazol-2-ylbenzenesulfonamide]  130 nM
7. CN(C)c1n[nH]cc1-c1cc(Cl)ccc1Oc1cc(F)c(S(=O)(=O)Nc2cscn2)cc1Cl [Example 860, 5-chloro-4-{4-chloro-2-[3-(dimethylamino)-1H-pyrazol-4-yl]phenoxy}-2-fluoro-N-1,3-thiazol-4-ylbenzenesulfonamide]  170 nM
8. CC(=O)N1CC(n2nccc2-c2cc(F)ccc2Oc2cc(F)c(S(=O)(=O)Nc3cscn3)cc2Cl)C1 [Example 989, 4-{2-[1-(1-acetylazetidin-3-yl)-1H-pyrazol-5-yl]-4-fluorophenoxy}-5-chloro-2-fluoro-N-1,3-thiazol-4-ylbenzenesulfonamide]  950 nM
